In US20100035925A1, “COMPOUNDS, PHARMACEUTICAL CO[…] DMETHODS FOR […] INFECTIVITY” ([…], INC, priority 2004, published 2010):

Legend:
[1] = system: HIV drug resistant strains (pL10R and p1617-1); type: cell-based

Row | Structure (SMILES) | cytotoxicity (transfected 293 cells) | inhibitory activity on HIV infectivity (in words) [1]
1 | O=C(O)C[S+]([O-])c1ccc2c3c(cccc13)C(=O)c1ccccc1-2 (centres unmarked) [Compound 111] | without significant cytotoxicity | 
2 | COc1ccc2c(Cc3c4ccccc4cc4ccccc34)cncc2c1O [Compound 1334] |  | lesser inhibitory activity
